{"source": "patent US7651978B2", "about": "“Selective herbicides based on a substituted phenylsulphonylaminocarbonyl-triazolinone” (Arysta LifeScience North America, LLC, priority 1998, dated 2010)", "key": {"Capsella bursa-pastoris": {"system": "Capsella bursa-pastoris", "assay": "Post-emergence tests/outdoors (Example D, Canada and USA)", "format": "in vivo", "settings": "outdoors, 28–30 g of a.i./ha + SAS, 70 WP or 70 WG, 12 tests", "protocol": "(§1) Post-Emergence Tests/Outdoors The sodium salt of the compound of the formula (I) was tested under outdoor conditions in the main cultivation areas of summer wheat in Canada and the USA against economically important weeds. The small-plot experiments were carried out on cultivated land under agricultural use, with cultivation and climate conditions which can be considered to be representative for the period of the trial. Areas with particularly extensive weed growth were chosen by way of preference. The active compound was applied across the area by the spray method, with an average droplet size. To produce a useful preparation of active compound, the active compound was formulated as 70 WP or 70 WG (70% w/w water-dispersible powder or granules) and applied with customary amounts of water. Wetting of the plants was improved by addition of a surface-active substance (SAS) in the concentration recommended by the manufacturer. To assess the crop compatibility, from 1 to 8 weeks after the treatment, plant growth inhibitions or […] of the leaf area were assessed in % damage in comparison to the development of the untreated control. At different intervals after the treatment, the herbicidal activity was assessed as % reduction in comparison to the untreated control, based on the weed development. The figures denote: • 0%=no damage of the crops or no herbicidal effect, • 100%=total destruction of the crops or the weeds."}, "Setaria viridis [1]": {"system": "Setaria viridis", "assay": "Post-emergence tests/outdoors (Example D, Canada and USA)", "format": "in vivo", "settings": "outdoors, 28–30 g of a.i./ha + SAS, 70 WP or 70 WG, 102 tests", "protocol": "as §1"}, "Amaranthus retroflexus": {"system": "Amaranthus retroflexus", "assay": "Post-emergence tests/outdoors (Example D, Canada and USA)", "format": "in vivo", "settings": "outdoors, 28–30 g of a.i./ha + SAS, 70 WP or 70 WG, 60 tests", "protocol": "as §1"}, "Brassica spp.": {"system": "Brassica spp.", "assay": "Post-emergence tests/outdoors (Example D, Canada and USA)", "format": "in vivo", "settings": "outdoors, 28–30 g of a.i./ha + SAS, 70 WP or 70 WG, 27 tests", "protocol": "as §1"}, "Sinapis arvensis [2]": {"system": "Sinapis arvensis", "assay": "Post-emergence tests/outdoors (Example D, Canada and USA)", "format": "in vivo", "settings": "outdoors, 28–30 g of a.i./ha + SAS, 70 WP or 70 WG, 48 tests", "protocol": "as §1"}, "Avena fatua [3]": {"system": "Avena fatua", "assay": "Post-emergence tests/outdoors (Example D, Canada and USA)", "format": "in vivo", "settings": "outdoors, 28–30 g of a.i./ha + SAS, 70 WP or 70 WG, 263 tests", "protocol": "as §1"}, "Thlaspi arvense [4]": {"system": "Thlaspi arvense", "assay": "Post-emergence tests/outdoors (Example D, Canada and USA)", "format": "in vivo", "settings": "outdoors, 28–30 g of a.i./ha + SAS, 70 WP or 70 WG, 45 tests", "protocol": "as §1"}, "Lolium": {"system": "Lolium", "assay": "Post-emergence test/greenhouse", "format": "in vivo", "settings": "60 g ai./ha, after three weeks", "protocol": "(§2) Post-Emergence Test/Greenhouse [table] To produce a suitable preparation of active compound, 1 part by weight of active compound is mixed with the stated amount of solvent, the stated amount of emulsifier is added and the concentrate is diluted with water to the desired concentration. Test plants which have a height of 5-15 cm are sprayed with the preparation of active compound such that the particular amounts of active compound desired are applied per unit area. The concentration of the spray liquor is chosen so that the particular amounts of active compound desired are applied in 500 ml of water/ha. After three weeks, the degree of damage to the plants is assessed in % damage in comparison to the development of the untreated control. The figures denote: • 0%=no effect (like untreated control) • 100%=total destruction"}, "Avena": {"system": "Avena", "assay": "Post-emergence test/greenhouse", "format": "in vivo", "settings": "after three weeks", "protocol": "as §2"}, "Agropyron": {"system": "Agropyron", "assay": "Post-emergence test/greenhouse", "format": "in vivo", "settings": "60 g ai./ha, after three weeks", "protocol": "as §2"}, "Alopecurus": {"system": "Alopecurus", "assay": "Post-emergence test/greenhouse", "format": "in vivo", "settings": "504 h, after three weeks, read-out: degree of damage, Alopecurus", "protocol": "as §2"}, "Setaria": {"system": "Setaria", "assay": "Post-emergence test/greenhouse", "format": "in vivo", "settings": "after three weeks", "protocol": "as §2"}, "Veronica": {"system": "Veronica", "assay": "Post-emergence test/greenhouse", "format": "in vivo", "settings": "60 g ai./ha, after three weeks", "protocol": "as §2"}, "Bromus": {"system": "Bromus", "assay": "Post-emergence test/greenhouse", "format": "in vivo", "settings": "60 g ai./ha, after three weeks", "protocol": "as §2"}, "Wheat [5]": {"system": "Wheat", "assay": "Post-emergence test/greenhouse", "format": "in vivo", "settings": "wheat, in vivo, 3 weeks", "protocol": "as §2"}, "wheat [6]": {"system": "wheat", "assay": "Post-emergence tests/outdoors (Example C, Canada), crop damage", "format": "in vivo, summer wheat", "settings": "in vivo", "protocol": "(§3) Post-Emergence Tests/Outdoors In addition to the comparative compounds (B) and (D), the sodium salt of the compound of the formula (I) was tested under outdoor conditions in the main cultivation areas of summer wheat in Canada against economically important weeds. The small-plot experiments were carried out on cultivated land under agricultural use. Areas with particularly extensive weed growth were chosen preferably. The active compounds were applied across the area by the spray method, with an average droplet size. To produce a useful preparation of active compound, the active compounds were formulated as 70 WP (70% w/w water-dispersible powder) and applied with customary amounts of water. Wetting of the plants was improved by addition of a surface-active substance (SAS) in the concentrations recommended by the respective manufacturer. To assess the crop compatibility, from 1 to 8 weeks after the treatment, plant growth inhibitions or […] of the leaf area were assessed in % damage in comparison to the development of the untreated control. At different intervals after the treatment, the herbicidal activity was assessed as % reduction in comparison to the untreated control, based on the weed development. The figures denote: • 0%=no damage of the crops or no herbicidal effect, • 100%=total destruction of the crops or the weeds."}, "Setaria viridis [7]": {"system": "Setaria viridis", "assay": "Post-emergence tests/outdoors (Example C, Canada)", "format": "in vivo", "settings": "outdoors, 30 g of a.i./ha + SAS (Canplus 411), 70 WP, 5 tests", "protocol": "as §3"}, "Sinapis arvensis [8]": {"system": "Sinapis arvensis", "assay": "Post-emergence tests/outdoors (Example C, Canada)", "format": "in vivo", "settings": "outdoors, 30 g of a.i./ha + SAS (Canplus 411), 70 WP, 5 tests", "protocol": "as §3"}, "Avena fatua [9]": {"system": "Avena fatua", "assay": "Post-emergence tests/outdoors (Example C, Canada)", "format": "in vivo", "settings": "outdoors", "protocol": "as §3"}, "Thlaspi arvense [10]": {"system": "Thlaspi arvense", "assay": "Post-emergence tests/outdoors (Example C, Canada)", "format": "in vivo", "settings": "outdoors, 30 g of a.i./ha + SAS (Canplus 411), 70 WP, 3 tests", "protocol": "as §3"}, "Fallopia convolvulus": {"system": "Fallopia convolvulus", "assay": "Post-emergence tests/outdoors (Example C, Canada)", "format": "in vivo", "settings": "outdoors, 30 g of a.i./ha + SAS (Canplus 411), 70 WP, 5 tests", "protocol": "as §3"}}, "note": "Structures can show the parent of a compound that is named as a salt."}
{"smiles": "COc1nn(C(=O)NS(=O)(=O)c2ccccc2OC(F)(F)F)c(=O)n1C", "note": "[(I)-Na-salt, 2-(2-trifluoromethoxy-phenylsulphonylaminocarbonyl)-4-methyl-5-methoxy-2,4-dihydro-3H-1,2,4-triazol-3-one]", "values": [{"measurement": "herbicidal effect (%), Capsella bursa-pastoris", "setting": "Capsella bursa-pastoris", "result": 90, "unit": "%"}, {"measurement": "herbicidal effect (%), Setaria viridis", "setting": "Setaria viridis [1]", "result": 94, "unit": "%"}, {"measurement": "herbicidal effect (%), Amaranthus retroflexus", "setting": "Amaranthus retroflexus", "result": 90, "unit": "%"}, {"measurement": "herbicidal effect (%), Brassica spp.", "setting": "Brassica spp.", "result": 93, "unit": "%"}, {"measurement": "herbicidal effect (%), Sinapis arvensis", "setting": "Sinapis arvensis [2]", "result": 98, "unit": "%"}, {"measurement": "herbicidal effect (%), Avena fatua", "setting": "Avena fatua [3]", "result": 90, "unit": "%"}, {"measurement": "herbicidal effect (%), Thlaspi arvense", "setting": "Thlaspi arvense [4]", "result": 97, "unit": "%"}, {"measurement": "degree of damage, Lolium", "setting": "Lolium", "result": 90, "unit": "%"}, {"measurement": "degree of damage, Avena", "setting": "Avena; 60 g ai./ha", "result": 70, "unit": "%"}, {"measurement": "degree of damage, Avena", "setting": "Avena; 125 g ai./ha", "result": 90, "unit": "%"}, {"measurement": "degree of damage, Agropyron", "setting": "Agropyron", "result": 70, "unit": "%"}, {"measurement": "pest or weed control at 60 g/ha", "setting": "Alopecurus; 60 g ai./ha", "result": 80, "unit": "%"}, {"measurement": "pest or weed control at 125 g/ha", "setting": "Alopecurus; 125 g ai./ha", "result": 90, "unit": "%"}, {"measurement": "degree of damage, Setaria", "setting": "Setaria; 60 g ai./ha", "result": 100, "unit": "%"}, {"measurement": "degree of damage, Setaria", "setting": "Setaria; 125 g ai./ha", "result": 95, "unit": "%"}, {"measurement": "degree of damage, Veronica", "setting": "Veronica", "result": 90, "unit": "%"}, {"measurement": "degree of damage, Bromus", "setting": "Bromus", "result": 90, "unit": "%"}, {"measurement": "degree of damage, Wheat", "setting": "Wheat [5]", "result": 0, "unit": "%"}, {"measurement": "crop compatibility compared with comparative compounds (B) and (D), in words", "setting": "wheat [6]", "result": "approximately the same compatibility"}, {"measurement": "herbicidal effect (%), Setaria viridis", "setting": "Setaria viridis [7]", "result": 94, "unit": "%"}, {"measurement": "herbicidal effect (%), Sinapis arvensis", "setting": "Sinapis arvensis [8]", "result": 94, "unit": "%"}, {"measurement": "herbicidal effect (%), Avena fatua", "setting": "Avena fatua [9]; 30 g of a.i./ha + SAS (Canplus 411), 70 WP, 6 tests", "result": 88, "unit": "%"}, {"measurement": "activity against Avena fatua compared with comparative compounds (B) and (D), in words", "setting": "Avena fatua [9]; post-emergence", "result": "considerably stronger activity"}, {"measurement": "herbicidal effect (%), Thlaspi arvense", "setting": "Thlaspi arvense [10]", "result": 93, "unit": "%"}, {"measurement": "herbicidal effect (%), Fallopia convolvulus", "setting": "Fallopia convolvulus", "result": 73, "unit": "%"}]}
